{"source": "patent US20210095293A1", "about": "“METHODS OF TREATING CANCERS WITH GPR132 INHIBITORS” (The Board of Regents of the University of Texas System, priority 2016, published 2021)", "assay_type_in_all_cases": "cell-based, mouse", "key": {"[1]": {"tested_on": "breast cancer cells (EO771, 4T1.2)", "assay": "Boyden chamber assay, cancer cell invasion (matrigel)", "experimental": "FIGS. 11A-11C. Lactate-activated macrophage promotes cancer cell adhesion, migration and invasion via Gpr132. (FIG. 11A) Adherence assays. 4T1.2 cells were suspended in fibronectin ([…]) pre-coated plates with CM from spleen-derived macrophages (mf) that were treated with 4T1.2 CM or lactate (5 mM) with or without Gpr132 antibody (6 mg/ml) or normal IgG (6 mg/ml) for 10 min. The adhered cells were stained with crystal violet, dissolved in 1% Triton X-100 and measured by OD590. (FIGS. 11B-11C) Boyden chamber assay of cancer cell migration and invasion. 4T1.2 cells (B) or EO771 cells (FIG. 11C) were plated on the upper chamber inserts, with untreated (Control), 4T1.2 CM-activated or lactate-activated spleen-derived WT or Gpr132-KO macrophages plated in the lower chambers. For invasion assay, the inserts were pre-coated with 60 μl matrigel. After migration for 6 hrs (FIG. 11B) or invasion for 24 hrs (FIG. 11C), the migrated or invaded cells were stained with crystal violet and counted as cells per field of view under microscope (n=3-4); For (FIG. 11C), the first bar of each data set of the bar graphs represents the control mf, and the second bar represents Gpr132KO; *p<0.05; **p<0.01; ***p<0.005; ****p<0.001. Scale bar, 500 μm.\nFIGS. 23A-23B. Cancer cell-derived lactate activates macrophages to promote cancer cell migration and invasion via Gpr132. (FIGS. 23A-23B) Boyden chamber assay. EO771 or 4T1.2 cells were cultured in the presence or absence of oxamic acid (90 mM) for 3 days. CM was harvested after the cells were cultured for another 24 hrs without oxamic acid. […] After migration for 6 hrs (FIG. 23A) or invasion for 24 hrs (FIG. 23B), the migrated or invaded cells were stained with crystal violet and counted as cells per field of view under microscope (n=3-4); for (FIG. 23A), the bars in each data set of the bar graph represent, from left to right, control, EO771, Oxamic acid, and Oxamic acid+Lactate; for (FIG. 23B), the bars in each data set of the bar graph represent, from left to right, control, 4T1.2CM, Oxamic acid, and Oxamic acid+Lactate; *p<0.05; ****p<0.001. […]"}, "Gpr132": {"tested_on": "Gpr132", "assay": "calcium mobilization assay in BMDMs", "details": "WT or Gpr132-KO BMDMs stimulated with 25 mM", "experimental": "FIG. 27. […] WT or Gpr132-KO BMDMs were stimulated with 25 mM lactate (Left) or HCl (Right) (n=3).\nTo determine whether Gpr132 is required for lactate signaling in macrophages, a calcium mobilization assay was performed. […] First, lactate levels in the CM of distinct cancer cell lines were measured using a Vitros 250 chemistry analyzer. […] Second, the effects of blocking lactate production from EO771 and 4T1.2 cells by oxamic acid, an inhibitor of lactate dehydrogenase was tested."}, "AKT/mTOR signaling": {"tested_on": "AKT/mTOR signaling", "assay": "PathScan Akt Signaling Antibody Array in macrophages", "details": "lactate 5 mM for 15 min", "experimental": "FIG. 20. Lactate activates macrophage AKT/mTOR signaling via Gpr132. WT and Gpr132-KO bone marrow-derived macrophages were serum starved for 24 hrs. After treatment with lactate (5 mM) for 15 min, cell lysate was harvested for detecting the activation status of AKT signaling pathway using a PathScan Akt Signaling Antibody Array Kit. WT, wild-type; Gpr132-KO, Gpr132 knockout.\nTo identify the signaling pathways that may mediate the function of lactate-Gpr132 axis in M2 macrophage activation, PathScan Akt Signaling Antibody Array was used to screen potential targets due to the importance of the Akt pathway in macrophage polarization. […] These findings reveal that lactate activation of Gpr132 facilitates macrophage M2 activation by augmenting AKT/mTOR signaling.\nSamples of 20 μg protein were applied to SDS polyacrylamide gels. After protein transfer, membranes were incubated with antibodies for Arg-1 (rabbit polyclonal, Santa Cruz Biotechnology), CD206, Gpr132, or β-actin (mouse monoclonal, Sigma) (1:1000) overnight at 4° C. […] Densitometric quantification was performed by Image-Pro Plus 6.0 software (Media Cybernetics). PathScan Akt Signaling Antibody Array (Cell Signaling) was incubated with macrophage proteins and analyzed following kit instructions."}}}
{"smiles": "CC(O)C(=O)O", "note": "(centres unmarked) [lactate]", "values": [{"measurement": "breast cancer cell invasion induced by activated macrophages, Gpr132 deletion", "setting": "[1]; EO771 cells, 24 hrs, Gpr132-KO macrophages", "value": "completely abrogated"}, {"measurement": "rescue of invasion by addition to oxamic acid-pretreated cancer cell CM", "setting": "[1]; exogenous lactate, WT macrophages", "value": "restored"}, {"measurement": "effect of Gpr132 deletion on triggered calcium mobilization", "setting": "Gpr132", "value": "compromised"}, {"measurement": "increase of AKT/mTOR pathway phosphorylation in Gpr132-KO macrophages", "setting": "AKT/mTOR signaling; Gpr132-KO BMDMs", "value": "not"}, {"measurement": "phosphorylation of AKT (Thr308), mTOR (Ser2481), S6 Ribosomal protein (Ser235/236) and RSK-1 (Thr421/Ser424) in WT macrophages", "setting": "AKT/mTOR signaling; serum starved WT BMDMs", "value": "increased"}]}
